# Test system: LTB4 formation
# Test: Rat Peritoneal Polymorphonuclear (PMN) Leukocyte Assay (leukotriene inhibitor assay)
# Assay type: cell-based
# Settings: A-23187 10 μM
# Protocol: For example, 2-[4-(1-hydroxyhexylphenoxymethyl)]quinoline (see Example 1) was compared to its 3-(1-hydroxyhexylphenoxymethyl) analog in the PMN (leukotriene inhibitor) assay.
# Rats under ether anesthesia are injected (i.p.) with 8 ml of a suspension of sodium cascinate (6 grams in ca. 50 ml water). After 15-24 hr. the rats are sacrificed (CO2) and the cells from the peritoneal cavity are recovered by lavage with 20 ml of buffer (Eagles MEM containing 30 mM HEPES adjusted to pH 7.4 with NaOH). The cells are pelleted (350×g, 5 min.), resuspended in buffer with vigorous shaking, filtered, through lens paper, recentrifuged and finally suspended in buffer at a concentration of […]. A 500 μl aliquot of PMN suspension and test compound are preincubated for 2 minutes at 37° C., followed by the addition of 10 μM A-23187. The suspension is stirred for an additional 4 minutes then bioassayed for […] content by adding an aliquot to a second 500 μl portion of the PMN at 37° C. The LTB4 produced in the first incubation causes aggregation of the second PMN, which is measured as a change in light transmission. The size of the assay aliquot is chosen to give a submaximal transmission change (usually -70%) for the untreated control. The percentage inhibition of LTB4 formation is calculated from the ratio of transmission change in the sample to the transmission change in the compound-free control.
SMILES,% Inhibition of LTB4 formation (0.0016 μg/ml) [%],% Inhibition of LTB4 formation (0.008 μg/ml) [%],% Inhibition of LTB4 formation (0.04 μg/ml) [%],% Inhibition of LTB4 formation (0.2 μg/ml) [%],% Inhibition of LTB4 formation (1 μg/ml) [%],% Inhibition of LTB4 formation (5 μg/ml) [%]
CCCCCC(O)c1ccc(OCc2ccc3ccccc3n2)cc1 (centres unmarked) [Example 1],15,49,89,100,100,100
"CCCCCC(O)c1cccc(OCc2ccc3ccccc3n2)c1 (centres unmarked) [Example 3-Analog, reference compound]",–,-1,39,100,100,100
